These results are taken from ChEMBL document CHEMBL1157332, “Neuroprotective bibenzyl glycosides of Stemona tuberosa roots” (2006).

Experiment [1] relates to SH-SY5Y. The experiment in a line: Neuroprotective effect against 6-OHDA-induced neurotoxicity in human SH-SY5Y cells at 0.1 uM treated 1 hr before 6-OHDA injury after 24 hrs by MTT assay relative to control. The format is functional.
For experiment [2], the system named is SH-SY5Y. The experiment in a line: Neuroprotective effect against 6-OHDA-induced neurotoxicity in human SH-SY5Y cells at 1 uM treated 1 hr before 6-OHDA injury after 24 hrs by MTT assay relative to control. The format is functional.

On to `Cc1c(O)cc(CCc2ccccc2)cc1O[C@@H]1O[C@H](CO)[C@@H](O)[C@H](O)[C@H]1O`, for which the Activity is listed as 50.9% in experiment [1] and 72.4% in experiment [2].

With `COc1cc(OC)cc(C(O[C@@H]2O[C@H](CO)[C@@H](O)[C@H](O)[C@H]2O)C(O)c2ccccc2)c1` (stereo partly drawn), the values for the Activity in experiment [1] and in experiment [2] were 29.5% and 97.3%, respectively.

With `COc1ccc(CCc2cc(O)c(C)c(O[C@@H]3O[C@H](CO)[C@@H](O)[C@H](O)[C@H]3O)c2)cc1`, the Activity was 31% in experiment [1] and 65.6% in experiment [2].

Consider `O=C(O[C@@H]1Cc2c(O)cc(O)cc2O[C@@H]1c1cc(O)c(O)c(O)c1)c1cc(O)c(O)c(O)c1` [EPIGALOCATECHIN GALLATE], for which the Activity in experiment [1] came out at 20.1%; in experiment [2] it was 42.2%.
